These are literature values, as cited in patent publication US20250152551A1, “DOCETAXEL COMPOSITIONS AND METHODS” (ZHUHAI BEIHAI BIOTECH CO., LTD., priority 2022, published 2025).

Data set [1] relates to microtubule depolymerization.

With `CC(=O)O[C@@]12CO[C@@H]1C[C@H](O)[C@@]1(C)C(=O)[C@H](O)C3=C(C)[C@@H](OC(=O)[C@H](O)[C@@H](NC(=O)OC(C)(C)C)c4ccccc4)C[C@@](O)([C@@H](OC(=O)c4ccccc4)[C@H]21)C3(C)C` [docetaxel], the Solubility in water entry is “practically insoluble in water”. Besides, the “Potency in inhibiting microtubule depolymerization relative to paclitaxel” value in data set [1] is on record as “about twice as potent as paclitaxel”.
